Measurements reported in ChEMBL document CHEMBL1201862, “PubChem BioAssay data set” (2004).
Activity calls are given as the source filed them.

Experiments:
[1] = biological target: T1, NADPH oxidase 1 (Homo sapiens, UniProt Q9Y5S8); type: functional, cell-based;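 further: Cell-based assay with luminescence read-out, IC50 derived from inhibitor dose-response curves; intracellular ROS from endogenous NOX1 in intact HT29 colon cancer cells; potency of inhibitors that lower the ROS luminescence signal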
T1 sequence (Q9Y5S8 whole entry): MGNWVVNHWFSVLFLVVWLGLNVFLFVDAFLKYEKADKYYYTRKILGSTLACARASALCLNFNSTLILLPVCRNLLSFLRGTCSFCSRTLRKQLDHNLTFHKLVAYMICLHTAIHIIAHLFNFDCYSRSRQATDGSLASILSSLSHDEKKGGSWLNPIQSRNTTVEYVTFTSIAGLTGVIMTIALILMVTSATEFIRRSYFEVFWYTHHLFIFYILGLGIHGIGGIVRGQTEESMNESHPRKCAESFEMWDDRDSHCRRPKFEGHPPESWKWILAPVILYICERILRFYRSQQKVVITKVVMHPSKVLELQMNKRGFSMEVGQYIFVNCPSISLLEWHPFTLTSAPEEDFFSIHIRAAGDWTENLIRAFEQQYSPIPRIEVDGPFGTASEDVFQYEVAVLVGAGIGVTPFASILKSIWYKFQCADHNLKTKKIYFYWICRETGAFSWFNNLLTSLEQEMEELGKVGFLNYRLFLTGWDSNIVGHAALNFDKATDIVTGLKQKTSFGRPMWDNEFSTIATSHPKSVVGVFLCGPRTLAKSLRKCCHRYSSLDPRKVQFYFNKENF

[2] = non-specific 3'UTR reporter inhibition in Clone20-Shn3RL – cell-based, Renilla luciferase, cherry-picked, counter-screen for Shn3 inhibitor project, dose response (AID 624133); type: functional
[3] = HIV-1 AD8 envelope cell-cell fusion blockers – cherry-pick, dose response (AID 652062); type: functional, cell-based;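 further: luciferase signal from cell-cell fusion driven by HIV-1 clade B AD8 Env; potency is for inhibitors of fusion seen as a drop in luminescence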
[4] = system: BJ; experiment: BJ-TERT-LT-ST fibroblast viability loss – cell-based, RAS-independent, luminescence, dose response (AID 1935); type: functional; details: Homo sapiens;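 further: BJ fibroblasts immortalized with TERT plus LT and ST oncogenes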
[5] = system: BJ; experiment: cells; type: functional, cell-based; details: Homo sapiens
[6] = Luminescence-based dose response cell-based high throughput screening assay for cytotoxic compounds using the IEC-6 intestinal epithelial cell line. [Related pubchem assays: 1858 (Summary AID.), 1825 (Counterscreen.), 1907 (Confirmation screen.)]; type: functional
[7] = Luminescence Cell-Based Dose Confirmation HTS to Identify Activators of 5'UTR Stem-Loop Driven Alpha-Synuclein mRNA Translation in H4 Neuroglioblastoma Cells. [Related pubchem assays: 1829 (Project Summary), 1814 (Primary HTS)]; type: functional
[8] = decrease of insulin promoter-GFP reporter – imaging, high-content screening, mouse beta cells (AID 1628); type: functional; details: MIN6
[9] = reduction of Shn3 3'UTR-driven luciferase in osteoblasts – cell-based, Clone20 osteoblasts, firefly luciferase, cherry-picked, dose response (AID 624132); type: functional;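 further: firefly luciferase luminescence from reporter carrying the Shn3 3'UTR in osteoblasts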
[10] = Luminescence Cell-Based Dose Confirmation to Identify Activators of 5'UTR Stem-Loop Driven Alpha-Synuclein mRNA Translation in H4 Neuroglioblastoma Cells. [Related pubchem assays: 1829 (Project Summary), 1814 (Primary HTS)]; type: functional
[11] = viability loss in CEM21 cells – cell-based, CellTiter-Glo luminescence, cherry-picked, cytotoxicity control for viral fusion inhibitor project, dose response (AID 652042); type: functional;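 further: potency for signal decrease meaning cytotoxicity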
[12] = system: BJ; experiment: growth inhibition of engineered Ras-driven BJ cells – cell-based, alamar blue fluorescence, cherrypicked samples, dose response (AID 2631); type: functional; details: Homo sapiens;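 further: confirmatory dose-response assay in RAS-dependent BJ fibroblasts engineered with TERT, LT and ST, with cytotoxicity read by fluorescence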
[13] = Luminescence Cell-Based Dose Response HTS to Identify Activators of Luciferase Translation or Activity in H4 […] Cells. [Related pubchem assays: 1829 (Project Summary), 1814 (Primary HTS)]; type: functional
[14] = Luminescence Cell-Based Dose Response to Identify Activators of Luciferase Translation or Activity in H4-C Neuroglioblastoma Cells. [Related pubchem assays: 1829 (Project Summary), 1814 (Primary HTS)]; type: functional
[15] = off-target signal loss in HeLa-CEM21 co-culture – HeLa F-luc CTL cells, cherry-picked, counter-screen for HIV-1 Env fusion inhibitor project, dose response (AID 652040); type: functional, cell-based;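 further: potency for signal decrease marking cytotoxic or nonspecific inhibition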
[16] = Luminescence Cell-Based Dose Response to Identify Activators of 5'UTR Stem-Loop Driven Prion Protein mRNA Translation in H4-C Neuroglioblastoma Cells. [Related pubchem assays: 1829 (Project Summary), 1814 (Primary HTS)]; type: functional
[17] = MIN6 cell viability loss – mouse insulinoma, cytotoxicity control, dose response (AID 2122); type: functional;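 further: confirmatory high-throughput counterscreen run to flag cytotoxic compounds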
[18] = system: BJ; experiment: BJ-TERT fibroblast viability loss – cell-based, RAS-independent, luminescence, dose response (AID 1933); type: functional; details: Homo sapiens
[19] = DRD fibroblast viability loss – cell-based, non-viral oncogenic, luminescence, dose response (AID 1934); type: functional; details: Homo sapiens
[20] = blockers of HIV-1 envelope-mediated cell-cell fusion – cherry-pick, dose response (AID 652057); type: functional, cell-based
[21] = blockers of HIV-1 ZM109 envelope-driven cell-cell fusion – HeLa effector, CEM target cells, luciferase, cherry-pick, dose response (AID 652058); type: functional, cell-based;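 further: luciferase signal from HIV-1 Env mediated cell-cell fusion of effector and target cells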
[22] = biological target: COUP transcription factor 2 (Homo sapiens, UniProt P24468); experiment: Luminescence-based cell-based high throughput dose response assay to identify inhibitors of COUP-TFII (NR2F2).; type: functional;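 further: HEK293 cells transiently cotransfected with COUP-TFII expression vector and reporter; luciferase reporter luminescence driven by COUP-TFII from the pX2-168 reporter plasmid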
[23] = biological target: Bcl-2-like protein 1 (Homo sapiens, UniProt Q07817); experiment: blockers of BCLXL peptide binding – biochemical, fluorescence polarization, 1536-well, selectivity assay for MCL1 inhibitor project, dose response (AID 2218)
[24] = biological target: Induced myeloid leukemia cell differentiation protein Mcl-1 (Homo sapiens, UniProt Q07820); experiment: blockers of MCL1 binding to BIM peptide – biochemical, fluorescence polarization, BIM-BH3 peptide, 1536-well, dose response (AID 2217)
[25] = biological target: T2, Caspase-6 (Homo sapiens, UniProt P55212); experiment: inhibition of CASP6 peptide cleavage – biochemical, VEID-R110 fluorescence, cherry-pick, dose response (AID 720632)
T2 sequence (P55212 whole entry): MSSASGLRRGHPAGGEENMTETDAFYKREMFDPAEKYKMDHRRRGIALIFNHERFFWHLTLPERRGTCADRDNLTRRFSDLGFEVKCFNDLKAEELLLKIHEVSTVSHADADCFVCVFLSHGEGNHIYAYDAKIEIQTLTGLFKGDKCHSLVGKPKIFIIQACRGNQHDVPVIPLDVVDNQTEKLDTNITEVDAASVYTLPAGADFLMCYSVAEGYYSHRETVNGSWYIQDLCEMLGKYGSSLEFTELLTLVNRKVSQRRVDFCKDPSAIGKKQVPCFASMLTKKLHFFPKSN

Chain of COUP transcription factor 2 (P24468 whole entry): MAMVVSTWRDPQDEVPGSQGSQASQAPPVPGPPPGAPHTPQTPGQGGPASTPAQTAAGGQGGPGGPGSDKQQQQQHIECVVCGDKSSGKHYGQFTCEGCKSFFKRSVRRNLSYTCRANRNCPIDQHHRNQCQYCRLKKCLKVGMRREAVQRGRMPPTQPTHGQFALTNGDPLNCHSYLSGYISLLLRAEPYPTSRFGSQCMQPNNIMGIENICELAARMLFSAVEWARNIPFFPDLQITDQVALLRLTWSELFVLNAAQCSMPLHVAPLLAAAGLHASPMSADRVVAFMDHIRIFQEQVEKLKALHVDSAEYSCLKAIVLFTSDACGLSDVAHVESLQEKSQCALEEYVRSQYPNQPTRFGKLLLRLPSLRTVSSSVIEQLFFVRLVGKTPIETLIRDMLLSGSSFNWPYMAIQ
Chain of Induced myeloid leukemia cell differentiation protein Mcl-1 (Q07820 whole entry): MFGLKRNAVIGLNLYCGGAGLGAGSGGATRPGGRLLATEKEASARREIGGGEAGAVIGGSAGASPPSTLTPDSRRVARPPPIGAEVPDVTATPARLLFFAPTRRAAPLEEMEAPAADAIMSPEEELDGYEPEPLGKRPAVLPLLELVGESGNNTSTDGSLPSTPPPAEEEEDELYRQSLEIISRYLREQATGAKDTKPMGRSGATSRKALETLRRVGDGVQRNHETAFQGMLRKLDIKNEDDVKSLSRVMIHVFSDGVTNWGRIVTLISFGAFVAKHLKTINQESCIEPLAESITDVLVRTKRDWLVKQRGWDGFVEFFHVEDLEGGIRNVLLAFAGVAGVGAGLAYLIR
Chain of Bcl-2-like protein 1 (Q07817 whole entry): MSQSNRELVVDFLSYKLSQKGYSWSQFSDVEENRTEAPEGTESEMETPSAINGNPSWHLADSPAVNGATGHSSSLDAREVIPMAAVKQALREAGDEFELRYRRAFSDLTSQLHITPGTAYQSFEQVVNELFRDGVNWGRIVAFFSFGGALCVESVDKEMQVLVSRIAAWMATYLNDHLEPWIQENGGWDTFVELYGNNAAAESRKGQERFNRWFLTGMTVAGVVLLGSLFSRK

For O=C(Nc1ccc(NC(=O)c2ccccc2O)cc1)Nc1ccc(OCc2ccccc2)cc1, the IC50 [1] was > 17000 nM (not active).
With O=C1N(c2ccccc2)C[C@@H]2C[C@@H](c3cc4ccccc4o3)N3CCC[C@@]123 the AC50 [2] was 29900 nM (active), the AC50 [3] was 1270 nM (active) and the EC50 [4] was 318 nM (inconclusive). For the same compound, the EC50 [5] was 2350 nM (active), the IC50 [6] was 189 nM (active) and the EC50 [7] was > 120000 nM (not active). The IC50 [8] was 441 nM (active), the AC50 [9] was 536 nM (active) and the EC50 [10] was 1600 nM (active). The AC50 [11] was 534 nM (active), the EC50 [12] was 205 nM (active) and the EC50 [13] was > 120000 nM (not active). For the same compound, the EC50 [14] was 266 nM (inconclusive), the AC50 [15] was 1260 nM (active) and the EC50 [16] was 239 nM (inconclusive). For the same compound, the IC50 [17] was 535 nM (active), the EC50 [18] was 1370 nM (active) and the EC50 [19] was 480 nM (active). For the same compound, the AC50 [20] was 1010 nM (active), the AC50 [21] was 1300 nM (active) and the IC50 [22] was 737 nM (active).
With C/C(=N\NC(=O)c1cc(O)ccc1O)c1cccc(NC(=O)c2ccc(Cl)cc2)c1 the IC50 [23] was > 109000 nM (not active), the IC50 [24] was 59100 nM (not active) and the AC50 [25] was 8910 nM (active).
